For test [1], the target named is T1, hB2R (Homo sapiens, UniProt P30411).
T1 sequence (P30411 1-391): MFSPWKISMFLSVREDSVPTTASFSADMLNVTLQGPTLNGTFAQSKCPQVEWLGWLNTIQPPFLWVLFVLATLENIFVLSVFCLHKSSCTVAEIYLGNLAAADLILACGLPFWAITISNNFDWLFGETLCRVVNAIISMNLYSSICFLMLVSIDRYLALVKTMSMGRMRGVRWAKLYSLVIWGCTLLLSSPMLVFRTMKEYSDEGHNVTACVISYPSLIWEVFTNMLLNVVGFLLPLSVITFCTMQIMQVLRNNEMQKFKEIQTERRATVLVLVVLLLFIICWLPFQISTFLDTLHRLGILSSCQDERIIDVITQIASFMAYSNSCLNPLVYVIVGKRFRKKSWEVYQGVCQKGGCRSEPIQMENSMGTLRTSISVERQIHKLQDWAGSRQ
Description: Radioligand competition binding on HEK293 cells stably expressing hB2R. The following applies: competition with 1 nM [3H]BK, 1-2 h, serum-free DMEM, means of 2 independent experiments in triplicates, read-out: B2R HEK293 IC50. How it is done: Radiolabeled ligand competition binding assays were performed on HEK293 cells stably expressing hB1R or hB2R, as previously described. Cells were cultured in 24-well plates and incubated with 4 nM [^3H]Lys[Leu^8]desArg^9BK (for B1R studies) (ART1583; 90–120 Ci/mmol; American Radiolabeled Chemicals) or 1 nM [^3H]BK (for B2R studies) (NET706; 109 Ci/mmol; Perkin-Elmer, Woodbridge, ON, Canada) in serum-free DMEM for 1–2 h in the absence or presence of increasing concentrations of competitors (10^−11–10^−5M). Radioactivity in the samples was measured using a β-scintillation counter (Tri-Carb 2800; Perkin-Elmer). Binding affinities were expressed as IC50 values, calculated using GraphPad Prism version 8.2.1 software (GraphPad Software, San Diego, CA, USA).

Test [2] addresses T2, native hB1R (Homo sapiens, UniProt P46663).
T2 construct: from tissue; host or cells: isolated human umbilical vein (HUV)
T2 sequence (P46663 1-353): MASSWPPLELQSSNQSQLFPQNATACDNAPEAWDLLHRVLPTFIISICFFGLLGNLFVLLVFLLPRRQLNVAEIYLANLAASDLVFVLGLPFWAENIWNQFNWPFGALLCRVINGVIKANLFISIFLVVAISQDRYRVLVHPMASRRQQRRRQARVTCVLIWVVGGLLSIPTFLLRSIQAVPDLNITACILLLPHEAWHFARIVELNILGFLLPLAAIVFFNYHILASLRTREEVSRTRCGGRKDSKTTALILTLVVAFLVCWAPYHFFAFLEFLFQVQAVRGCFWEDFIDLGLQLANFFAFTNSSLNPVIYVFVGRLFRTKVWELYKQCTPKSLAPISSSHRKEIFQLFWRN
Description: Human umbilical vein (HUV) contractility bioassay, B1R. The conditions noted are these: isolated human umbilical vein contraction, DBK agonist at submaximal concentration; means of 2 independent experiments. How it is done: The potency (apparent affinity) of non-radioactive NOTA-βAla-R954 peptide conjugates at native inducible B1R was assessed using human tissue bioassays with isolated umbilical veins, as previously described. Collection of umbilical cords for these bioassays was approved by the CHUS Human Research Ethics Committee (protocol #97-14; 21 March 1997), and maternal consent was obtained in all cases. Antagonist affinity was expressed in terms of IC50, which represents the molar concentration of an antagonist that reduces the response to a submaximal concentration of the DBK agonist by 50%.

Test [3] addresses T1, hB2R. Kind of test: Human umbilical vein (HUV) contractility bioassay, B2R. The conditions noted are these: isolated human umbilical vein contraction; means of 2 independent experiments. Set-up: native (HUV) human kinin B1R and B2R; from tissue; host or cells: isolated human umbilical vein (HUV).
Test [4] has as its target T3, hB1R (Homo sapiens, UniProt P46663).
T3 sequence (P46663 1-353): T2 sequence (P46663 1-353)
Description: Radioligand competition binding on HEK293 cells stably expressing hB1R. The following applies: HEK293 cells stably expressing hB1R; competition with 4 nM [3H]Lys[Leu8]desArg9BK, 1-2 h, serum-free DMEM; means of 2 independent experiments in triplicates; read-out: B1R HEK293 IC50. More on the design: expressed in transfected cells; host or cells: QBI-HEK293A (lentiviral transduction, puromycin selection).

The target in test [5] is T3, hB1R. Description: NFAT-eGFP reporter assay in CHO-hB1R-NFAT-eGFP cells. The class given is cell-based. Set-up: expressed in transfected cells; host or cells: CHO (hB1R-expressing line, then transduced with NFAT-eGFP reporter). The source says:
The pLenti-6V5-NFAT-eGFP vector was generated from the pSIRV-NFAT-eGFP vector (a gift from Peter Steinberger, Addgene plasmid #118031). Briefly, NFAT-eGFP gene was PCR amplified using the following primers: 5′-[…]-3′ and 5′-[…]-3′). The amplified gene was then ligated into the ClaI and AgeI restriction sites of the pLenti-6V5 vector. Lentiviruses were produced using the pLenti-6V5-NFAT-eGFP vector in HEK293T cells and used to transduce a hB1R-expressing CHO cell line, followed by selection with 10 µg/mL blasticidin. […] Clones were grown in 4000 nanowells/well in 24-well plates and re-plated into 96-well plates after initial expansion via the ALS CellCelector™ (Sartorius Corporation, Bohemia, NY, USA). After clonal expansion, individual cell lines were evaluated based on their ratio of stimulated fluorescence to basal expression to determine maximum sensitivity.
Fluorescence assays performed on CHO-hB1R-NFAT-eGFP cells. Target cells were plated at 10,000 cells/well in a 96-well microplate (opaque black wells with clear flat bottom, Thermo Scientific, Rockford, IL, USA) using RPMI 1640 medium with 10% fetal bovine serum (FBS). After 24 h, the medium was replaced by RPMI without FBS and phenol red. […] Fluorescence was measured using a TECAN M1000 (Tecan Group Ltd., Männedorf, Switzerland) multimode microplate reader with excitation at 488 nm and emission at 507 nm. Each data point represents a ratio of two values, divided by the average fluorescence of six control wells. […] Antagonist affinity (Kb) was estimated from functional inhibition curves using the Gaddum (Schild) equation assuming competitive antagonism at human B1R: Kb = [B]/(dose-ratio–1), where [B] is the antagonist concentration, and the dose ratio is EC50 + Compound/EC50.

SMILES strings stand for the structures. Square brackets hold non-standard residues; d marks the D form. Peptide text beside a SMILES is read from it. Oic = O=C(O)[C@@H]1C[C@@H]2CCCC[C@@H]2N1; d2Nal = N[C@H](Cc1ccc2ccccc2c1)C(=O)O; αMeF = C[C@](N)(Cc1ccccc1)C(=O)O; Orn = NCCC[C@H](N)C(=O)O Where only a bound is given, the exact number is not on record here.

Turning to `CC[C@H](C)[C@H](NC(=O)[C@@H](Cc1ccc2ccccc2c1)NC(=O)[C@H](CO)NC(=O)[C@](C)(Cc1ccccc1)NC(=O)CNC(=O)[C@@H]1CCCN1C(=O)[C@@H]1C[C@@H]2CCCC[C@@H]2N1C(=O)[C@H](CCCNC(=N)N)NC(=O)[C@H](CCCN)NC(C)=O)C(=O)O` [R954, AcOrn[Oic^2,^(αMe)Phe5,DβNal^7,Ile^8]desArg^9-bradykinin] (Ac-[Orn]R[Oic]PG[αMeF]S[d2Nal]I-OH), the half-inhibitory concentration (IC50) was above 10000 nM in test [1]; 3 nM in test [2]; above 10000 nM in test [3]; 2 nM in test [4]; 1.4 nM in test [5] (hB1R-stably expressing CHO-NFAT cells, antagonist potency, means of two independent experiments, read-out: CHO-NFAT IC50 (Table S1)). Further, the Kb in test [5] (read-out: B1R-NFAT CHO Kb) was 1.4 nM.

(Values after article PMC12473165, “Theranostic Potential of a New ^64Cu-Labeled NOTA-R954 Peptide Conjugate for Kinin B1R Expressing Prostate Cancer” (Pharmaceutics, 2025).)
